Data taken from publication PMC8945041 (Biomedicines, 2022).
Like-named read-outs stand apart in the source and are kept apart here.

Assays:
[1] = test system: POPC and POPC:Chol (2:1) LUV, erythrocytes and PBMCs; assay type: binding, human
[2] = test system: Erythrocytes; assay type: binding, human; settings: for Kd: read-out: Kd (apparent dissociation constant), Erythrocytes
[3] = test system: PBMCs; assay type: binding, human; settings: for Kd: read-out: Kd (apparent dissociation constant), PBMCs
[4] = pH 7.4
[5] = pH 7.4; remark: listed apart in the source

tocopherol
change in membrane dipole potential (di-8-ANEPPS) [1]: no changes in dipole potential were observed

VIKI–GSGSG–C-dPEG4–Cys–cholesterol [VIKI-dPEG4-Chol]
Rmin, Erythrocytes [2]: −0.33 ± 0.01
Kd ([2]; 1.4% DMSO): 0.13 ± 0.03 µM
Rmin, PBMCs [3]: −0.23 ± 0.02
Kd ([3]; 1.4% DMSO): 0.3 ± 0.12 µM

CC(C)CCC[C@@H](C)[C@H]1CC[C@H]2[C@@H]3CC=C4C[C@@H](O)CC[C@]4(C)[C@H]3CC[C@]12C [cholesterol]
change in membrane dipole potential (di-8-ANEPPS) [1]: no changes in dipole potential were observed

VIKI–GSGSG–C-dPEG4–Cys-(PEG4-bis-tocopherol) [VIKI-dPEG4-bisToco]
Rmin, Erythrocytes [2]: −0.22 ± 0.01
Kd [2]: 0.09 ± 0.03 µM
Rmin, PBMCs [3]: −0.27 ± 0.01
Kd [3]: 0.18 ± 0.04 µM

VIKI–GSGSG-C-dPEG4–Cys–(CH2CONH2) [VIKI-dPEG4]
secondary structure by CD [4]: random coil
maximum fluorescence emission wavelength, free in solution [5]: 356 nm

VIKI–GSGSG–C-dPEG4–Cys–(PEG4-bis-cholesterol) [VIKI-dPEG4-bisChol]
Rmin, Erythrocytes [2]: −0.36 ± 0.01
Kd ([2]; 1.4% DMSO): 0.07 ± 0.02 µM
Rmin, PBMCs [3]: −0.24 ± 0.01
Kd ([3]; 1.4% DMSO): 0.22 ± 0.05 µM

VIKI–GSGSG–C-dPEG4–Cys–tocopherol [VIKI-dPEG4-Toco]
Rmin, Erythrocytes [2]: −0.30 ± 0.01
Kd [2]: 0.14 ± 0.03 µM
Rmin, PBMCs [3]: −0.29 ± 0.02
Kd [3]: 0.51 ± 0.12 µM
